The text below walks through data of patent publication US12138232B2, “Compounds for treating coronavirus infection” (priority 2020, dated 2024).

The structures appear in SMILES notation.

In series [1] the target is T1, 3CL protease of SARS-coronavirus 2 (Severe acute respiratory syndrome coronavirus 2, UniProt P0DTD1).
T1 construct: purchased BPS 79955-1
The series is described as follows: 3CL protease fluorescent assay based on commercial kit (BPS cat. 79955-1). It counts as biochemical. Particulars: for Activity (RFU/minute): mean ± standard deviation, 0 μM: 743.7 ± 20.6. Here is the method:
Inhibition of the activity of 3CL protease of SARS-coronavirus 2 (the coronavirus associated with COVID-19) was determined by an assay based on commercial kit (BPS cat. 79955-1). […] The reaction was initiated by addition of 50 μl of 50 μM kit substrate (25 μM final concentration), and then fluorescence was monitored (at 340 nm excitation wavelength, 510 nm emission wavelength) using a CLARIOstar® Plus plate reader (BMG Labtech). The 3CL protease activity was quantified as relative fluorescent units (RFU) per minute.

The conditions of series [2]: based on literature reports; cited from earlier work.

As to `CC(C)=CCC(O)C1=CC(=O)c2c(O)ccc(O)c2C1=O` (stereo not drawn) [Shikonin, 5,8-dihydroxy-2-(1-hydroxy-4-methylpent-3-en-1-yl)naphthalene-1,4-dione], the “Activity (RFU/minute)” value was 653.8 ± 28.1 RFU/minute in series [1] (0.1 μM shikonin), 680.1 ± 34.3 RFU/minute in series [1] (1 μM shikonin), 425.0 ± 7.8 RFU/minute in series [1] (10 μM shikonin) and 2.9 ± 18.4 RFU/minute in series [1] (100 μM shikonin). For the same compound, the “inhibition of 3CL protease” value in series [1] (100 μM shikonin) was “almost complete inhibition”. Besides, the “dosages at which toxicity is not expected” value in series [2] is listed as “less than 8 grams per day”.
